According to PubChem BioAssay (NCI):
Values joined by “and” are separate entries in the source; they are usually repeats but may differ in a detail not shown here. Identical values can stand only once.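 1) Cells in 96-well plates. 2) Compound, 48 h, 5 concentrations. 3) Linear interpolation between surrounding doses. 4) Unreached endpoint = highest concentration. GI50 is the concentration that inhibits growth by half. The concentration for full growth arrest is given as TGI.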

Tests used:
Assay in all cases: growth of human tumour cells (NCI), 48 h
[1] = test system: 786-0 renal
[2] = test system: SK-MEL-2 melanoma
[3] = test system: HCT-116 colon
[4] = test system: RXF 393 renal
[5] = test system: OVCAR-4 ovarian
[6] = test system: CAKI-1 renal
[7] = test system: NCI-H460 lung
[8] = test system: OVCAR-3 ovarian
[9] = test system: SN12C renal
[10] = test system: SK-MEL-28 melanoma

CC(=O)OCC1OC(O[C@@H]2C[C@H]3C(C)(C)[C@H](OC(C)=O)CC[C@]3(C)[C@H]3CCC4=C([C@@H](C)C[C@@H](O)[C@H](O)C(C)(C)O)CC[C@@]4(C)[C@@]32C)C(O)C(O)C1O (stereo partly specified)
GI50 [1]: 18.2 µM
TGI [1]: 32.7 µM
GI50 [2]: 16.3 µM
TGI [2]: 30.3 µM
GI50 [3]: 14.2 µM
TGI [3]: 27.2 µM
GI50 [4]: 14.8 µM
TGI [4]: 28 µM
GI50 [5]: 17 µM
TGI [5]: 31.1 µM
GI50 [6]: 15.6 µM
TGI [6]: 28.9 µM
GI50 [7]: 16 µM
TGI [7]: 29.8 µM
GI50 [8]: 14.4 µM
TGI [8]: 27.8 µM
GI50 [9]: 16.4 µM
TGI [9]: 30 µM
GI50 [10]: 17 µM
TGI [10]: 30.9 µM

Clc1ccccc1C(c1ccccc1)(c1ccccc1)n1ccnc1
GI50 [1]: 3.05 µM
TGI [1]: 10.6 µM and 43 µM
GI50 [2]: 2.66 µM
TGI [2]: 7.22 µM and 29.3 µM
GI50 [3]: 1.44 µM
TGI [3]: 3.35 µM and 23 µM
GI50 [4]: 2.89 µM
TGI [4]: 9.28 µM and 42.1 µM
GI50 [5]: 2.95 µM
TGI [5]: 15.5 µM and 41.3 µM
GI50 [6]: 2.34 µM
TGI [6]: 15.3 µM and 50.5 µM
GI50 [7]: 2.9 µM
TGI [7]: 9.53 µM and 29.8 µM
GI50 [8]: 1.78 µM
TGI [8]: 4.41 µM and 17.6 µM
GI50 [9]: 2.63 µM
TGI [9]: 13.3 µM
GI50 [10]: 3.86 µM
TGI [10]: 15.6 µM and 36.1 µM

Cc1cc2nc3c4cc(Cl)ccc4n(CCN(C)C)c3nc2cc1C
GI50 [1]: 1.81 µM
TGI [1]: 4.22 µM
GI50 [2]: 2.08 µM
TGI [2]: 4.45 µM
GI50 [3]: 0.7 µM
TGI [3]: 2.08 µM
GI50 [4]: 1.59 µM
TGI [4]: 3.32 µM
GI50 [5]: 1.72 µM
TGI [5]: 9.08 µM
GI50 [6]: 1.06 µM
TGI [6]: 2.8 µM
GI50 [7]: 1.34 µM
TGI [7]: 2.85 µM
GI50 [8]: 1.92 µM
TGI [8]: 4.76 µM
GI50 [9]: 1.61 µM
TGI [9]: 8.45 µM
GI50 [10]: 2 µM
TGI [10]: 3.53 µM

CC(=O)[CH-]C(=O)c1ccccc1.CC(=O)[CH-]C(=O)c1ccccc1.CCCCCCCCCCCCCCCCCC(=O)[O-].CCCCCCCCCCCCCCCCCC(=O)[O-].[Ti+4]
GI50 [1]: 18.8 µM
TGI [1]: 33.2 µM
GI50 [2]: 21.7 µM
TGI [2]: 52.4 µM
GI50 [3]: 18.3 µM
TGI [3]: 36.5 µM
GI50 [4]: 19.7 µM
TGI [4]: 33.9 µM
GI50 [5]: 16.6 µM
TGI [5]: 31.8 µM
GI50 [6]: 19.8 µM
TGI [6]: 39.9 µM
GI50 [7]: 30.7 µM
TGI [7]: 95.7 µM
GI50 [8]: 18.9 µM
TGI [8]: 38 µM
GI50 [9]: 29.9 µM
TGI [9]: 73.5 µM
GI50 [10]: 23.7 µM
TGI [10]: 60.5 µM

COc1cc(/C=C\[N+](=O)[O-])ccc1O
GI50 [1]: 1.81 µM
TGI [1]: 3.94 µM
GI50 [2]: 2.8 µM
TGI [2]: 10.4 µM
GI50 [3]: 1.83 µM
TGI [3]: 3.43 µM
GI50 [4]: 1.91 µM
TGI [4]: 3.48 µM
GI50 [5]: 3.86 µM
TGI [5]: 14.1 µM
GI50 [6]: 2.85 µM
TGI [6]: 10.9 µM
GI50 [7]: 3.51 µM
TGI [7]: 13.7 µM
GI50 [8]: 1.9 µM
TGI [8]: 3.36 µM
GI50 [9]: 2.49 µM
TGI [9]: 7.74 µM
GI50 [10]: 1.95 µM
TGI [10]: 4.59 µM

O=c1cc(-c2cccc(F)c2)[nH]c2cc3c(cc12)OCO3
GI50 [1]: 0.346 µM
TGI [1]: 75 µM and 17.7 µM
GI50 [2]: 0.23 µM
TGI [2]: 2.9 µM and 23.6 µM
GI50 [3]: 0.22 µM
TGI [3]: 2.91 µM and 15.7 µM
TGI [4]: 4.84 µM
TGI [5]: > 68.1 µM
TGI [6]: > 53.3 µM
GI50 [7]: 0.257 µM
TGI [7]: 4.31 µM and 22.7 µM
GI50 [8]: 0.291 µM
GI50 [9]: 0.411 µM
TGI [9]: 75 µM and 23.3 µM
GI50 [10]: 0.359 µM
TGI [10]: 75 µM and > 72.4 µM

N#Cc1c(-c2cccs2)c2c(=S)[nH]c(=S)[nH]c2[nH]c1=S
GI50 [1]: 36.4 µM
TGI [1]: > 100 µM
GI50 [2]: 32.9 µM
TGI [2]: 80.9 µM
GI50 [3]: 49.5 µM
TGI [3]: > 100 µM
GI50 [4]: 37.1 µM
TGI [4]: > 100 µM
GI50 [5]: 53 µM
TGI [5]: > 100 µM
GI50 [6]: 31.4 µM
TGI [6]: > 100 µM
GI50 [7]: 39.1 µM
TGI [7]: 72.9 µM
GI50 [8]: 34.5 µM
TGI [8]: 98.8 µM
GI50 [9]: 43 µM
TGI [9]: > 100 µM
GI50 [10]: 22.4 µM
TGI [10]: > 100 µM

CC(CO)(CO)N=Cc1cc(I)cc(I)c1O
TGI [1]: 30.9 µM
TGI [2]: 27.4 µM
TGI [3]: 31.3 µM
TGI [4]: 26.5 µM
TGI [5]: 37.2 µM
TGI [6]: 68.2 µM
TGI [7]: 55 µM
TGI [8]: 29.2 µM
TGI [9]: 31.4 µM
TGI [10]: 38.7 µM

COc1ccc(C(=O)Nc2ncc(Cc3ccc(Cl)cc3)s2)cc1
GI50 [1]: 0.0779 µM
TGI [1]: > 100 µM
GI50 [2]: 0.532 µM
TGI [2]: > 100 µM
GI50 [3]: 0.0509 µM
TGI [3]: > 100 µM
GI50 [4]: 0.048 µM
TGI [4]: 0.927 µM
GI50 [5]: 2.7 µM
TGI [5]: > 100 µM
GI50 [6]: 0.0471 µM
TGI [6]: > 73.1 µM
GI50 [7]: 0.0406 µM
TGI [7]: > 100 µM
GI50 [8]: 0.0327 µM
TGI [8]: 0.159 µM
GI50 [9]: 0.0946 µM
TGI [9]: > 100 µM
GI50 [10]: 2.12 µM
TGI [10]: > 100 µM

CC1(C)N=C(N)N=C(N)N1c1ccc(CCCCc2ccc(S(=O)(=O)F)cc2)cc1
GI50 [1]: 0.64 µM
TGI [1]: 19.1 µM
GI50 [2]: 4.91 µM
TGI [2]: 21.8 µM
GI50 [3]: 0.373 µM
TGI [3]: 15.8 µM
GI50 [4]: 0.79 µM
TGI [4]: > 100 µM
GI50 [5]: 8.23 µM
TGI [5]: > 86.5 µM
GI50 [6]: 3.7 µM
TGI [6]: > 100 µM
GI50 [7]: 0.153 µM
TGI [7]: 13.3 µM
GI50 [8]: 3.88 µM
TGI [8]: 16.4 µM
GI50 [9]: 1.2 µM
TGI [9]: 17.7 µM
GI50 [10]: 4.57 µM
TGI [10]: 20.3 µM

FC(F)(F)c1nc(-c2ccccc2Cl)[nH]c1C(F)(F)F
TGI [1]: 4.73 µM
TGI [2]: 1.4 µM
TGI [3]: 2.15 µM
TGI [4]: 2.69 µM
TGI [5]: 22.1 µM
TGI [6]: 1.65 µM
TGI [7]: 4.17 µM
TGI [8]: 3.68 µM
TGI [9]: 3.14 µM
TGI [10]: 5.32 µM
